Among the test systems are KM12 colon; CCRF-CEM leukemia; HCC-2998 colon; UACC-62 melanoma; SF-268 CNS; A498 renal; NCI-H226 lung; SW-620 colon; UACC-257 melanoma; K-562 leukemia.
Holding throughout (assay): growth of human tumour cells (NCI), 48 h

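All cell lines were grown in 96-well plates and treated with compound for 48 hours. At the GI50, growth is halved. TGI marks complete inhibition of growth.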 Some results are limits rather than exact numbers.

`CCn1cnc(C[C@H](NC(=O)[C@H](CCCCNC(=O)Nc2cc(C(F)(F)F)cc(C(F)(F)F)c2)NC(=O)Nc2cc(C(F)(F)F)cc(C(F)(F)F)c2)C(=O)OC)c1`: the GI50 is 4.41 µM with KM12 colon; 3.04 µM with CCRF-CEM leukemia; 3.98 µM with HCC-2998 colon; greater than 10 µM in the assay on UACC-62 melanoma; 6.04 µM with SF-268 CNS; greater than 10 µM in the assay on A498 renal. Moreover, the GI50 in the assay on NCI-H226 lung was greater than 10 µM; in the assay on SW-620 colon, 6.86 µM; with UACC-257 melanoma it was greater than 10 µM. Besides, the TGI in the assay on KM12 colon, with CCRF-CEM leukemia, in the assay on HCC-2998 colon, with UACC-62 melanoma, in the assay with SF-268 CNS and in the assay on A498 renal was greater than 10 µM each time. Further, the TGI in the assay on NCI-H226 lung, with SW-620 colon and in the assay on UACC-257 melanoma was greater than 10 µM throughout.
Regarding `CCOC(=O)c1oc2c(OC)ccc3c2c1CCC3`, the TGI in the assay with KM12 colon, with CCRF-CEM leukemia, in the assay on HCC-2998 colon, in the assay with UACC-62 melanoma, in the assay with K-562 leukemia and in the assay on SF-268 CNS was greater than 100 µM each time. Besides, the TGI in the assay with A498 renal was greater than 100 µM; with SW-620 colon, greater than 100 µM; with UACC-257 melanoma, 10.9 µM.
Consider `C#CCN(N=O)C(=O)NC(CCCCNC(=O)OCc1ccccc1)C(=O)OCc1ccccc1` (centres undefined), for which the TGI in the assay on KM12 colon is greater than 100 µM; with CCRF-CEM leukemia, 41.8 µM; in the assay with HCC-2998 colon, greater than 100 µM; in the assay on UACC-62 melanoma it was greater than 100 µM; with K-562 leukemia, 50.5 µM; with SF-268 CNS it was greater than 100 µM. Also, the TGI with A498 renal was greater than 100 µM; in the assay with SW-620 colon it was 41 µM; with UACC-257 melanoma it was 79.5 µM.
Take `Cc1cc2c(cc1Cl)SC(N(c1ccccc1Cl)S(=O)(=O)c1ccc(Br)s1)=NS2(=O)=O`: the GI50 with KM12 colon is 25.8 µM; in the assay with CCRF-CEM leukemia, 25.8 µM; with HCC-2998 colon, 19.7 µM; in the assay on UACC-62 melanoma, 20.3 µM; in the assay with K-562 leukemia it was 18.7 µM; in the assay with SF-268 CNS, 12.7 µM. In addition, the GI50 in the assay with A498 renal was 11.3 µM; in the assay on NCI-H226 lung it was 23.1 µM; with SW-620 colon, 14.9 µM. The TGI with KM12 colon worked out at 83.4 µM; in the assay with CCRF-CEM leukemia, 82.1 µM; in the assay with HCC-2998 colon, 53.4 µM; with UACC-62 melanoma it was 68.4 µM; in the assay on K-562 leukemia it was 54.6 µM; with SF-268 CNS, 30.7 µM. Besides, the TGI in the assay on A498 renal is 42 µM; in the assay on NCI-H226 lung it was greater than 100 µM; in the assay with SW-620 colon it was 30.4 µM.
For the molecule `C[C@@H](Nc1nc(N[C@H](C)C(F)(F)F)nc(-c2cccc(Cl)n2)n1)C(F)(F)F`, the GI50 with KM12 colon was greater than 100 µM; in the assay with CCRF-CEM leukemia, greater than 100 µM; with HCC-2998 colon it was 66.3 µM; with K-562 leukemia, greater than 100 µM; in the assay with SF-268 CNS, 29.4 µM; in the assay with A498 renal, 29.9 µM. In addition, the figures for the GI50 with NCI-H226 lung, in the assay with SW-620 colon and with UACC-257 melanoma were 35.6 µM, greater than 100 µM and 51.4 µM, respectively. The TGI is greater than 100 µM in the assay with KM12 colon; greater than 100 µM in the assay on CCRF-CEM leukemia; greater than 100 µM in the assay on HCC-2998 colon; greater than 100 µM in the assay on K-562 leukemia; greater than 100 µM in the assay on SF-268 CNS; 99.7 µM with A498 renal. Besides, the TGI with NCI-H226 lung, with SW-620 colon and in the assay on UACC-257 melanoma was greater than 100 µM each time.
As to `CCc1cccc(C(C)C)c1NC(=O)CC1Sc2ccccc2NC1=O` (centres undefined), the TGI with KM12 colon, with CCRF-CEM leukemia, with HCC-2998 colon, in the assay on K-562 leukemia, with SF-268 CNS and in the assay with A498 renal was greater than 100 µM each time. The TGI in the assay with NCI-H226 lung, in the assay on SW-620 colon and with UACC-257 melanoma was greater than 100 µM in each case.
For `COc1ccccc1-n1cnc(N)c1C(=O)c1cc(OC)c(OC)c(OC)c1`, the GI50 in the assay with KM12 colon was 3.22 µM; with CCRF-CEM leukemia, 2.69 µM; in the assay on HCC-2998 colon it was 6.8 µM; with UACC-62 melanoma it was 1.88 µM; in the assay on K-562 leukemia it was 2.12 µM; in the assay with SF-268 CNS, 4.44 µM. Moreover, the GI50 in the assay with A498 renal was 2.79 µM; with NCI-H226 lung, 4.34 µM; in the assay with SW-620 colon it was 3.25 µM. Further, the TGI with KM12 colon, in the assay with CCRF-CEM leukemia, in the assay with HCC-2998 colon, in the assay with UACC-62 melanoma, in the assay with K-562 leukemia and in the assay with SF-268 CNS was greater than 100 µM in each case. Besides, the values for the TGI with A498 renal, in the assay on NCI-H226 lung and in the assay on SW-620 colon were 9.69 µM, greater than 100 µM and greater than 100 µM, respectively.
Take `CC/C=C\C[C@H]1C/C=C2/C(=O)C=C[C@H]2C/C=C\CCCC(=O)O1`: the GI50 in the assay on CCRF-CEM leukemia was 1.67 µM; with HCC-2998 colon it was 2.37 µM; with UACC-62 melanoma, 1.78 µM; in the assay with K-562 leukemia, 1.89 µM; in the assay with SF-268 CNS, 3.77 µM; with A498 renal it was 7.21 µM. Further, the GI50 with NCI-H226 lung is 3.4 µM; with SW-620 colon, 2.58 µM; in the assay with UACC-257 melanoma it was 5.04 µM. The TGI in the assay on CCRF-CEM leukemia is 15.3 µM; in the assay with HCC-2998 colon it was 8.43 µM; in the assay with UACC-62 melanoma it was 7.94 µM; in the assay with K-562 leukemia, greater than 50 µM; in the assay on SF-268 CNS it was 17.8 µM; with A498 renal, 14.4 µM. Further, the TGI in the assay on NCI-H226 lung amounted to 10.8 µM; in the assay on SW-620 colon, 10.4 µM; in the assay with UACC-257 melanoma it was 12 µM.
As for `Cc1cc(F)c(C(=O)Nc2cccc(-c3nncn3C(C)C)n2)cc1-n1cnc(C2CC2)c1`, the GI50 in the assay with KM12 colon was 20.7 µM; in the assay with CCRF-CEM leukemia it was 21 µM; in the assay with HCC-2998 colon it was 14.3 µM; in the assay on UACC-62 melanoma, 14.1 µM; in the assay on SF-268 CNS, 21.5 µM; in the assay with A498 renal, 14.2 µM. In addition, the GI50 in the assay with NCI-H226 lung is 19.5 µM; in the assay on SW-620 colon it was 20.8 µM; with UACC-257 melanoma it was 32.8 µM. In addition, the TGI is 95.6 µM with KM12 colon; greater than 100 µM in the assay on CCRF-CEM leukemia; greater than 100 µM with HCC-2998 colon; 48 µM in the assay on UACC-62 melanoma; greater than 100 µM in the assay on SF-268 CNS; 62.6 µM in the assay on A498 renal. The TGI in the assay on NCI-H226 lung was 80.7 µM; in the assay with SW-620 colon, greater than 100 µM; with UACC-257 melanoma, 85.7 µM.
Take `CCCCCC/C=C/C#CCCCCCCCC(=O)O`: the TGI with KM12 colon, in the assay on CCRF-CEM leukemia, with HCC-2998 colon, with K-562 leukemia, in the assay with SF-268 CNS and in the assay with A498 renal was greater than 100 µM in each case. Besides, the TGI in the assay with NCI-H226 lung, in the assay with SW-620 colon and with UACC-257 melanoma was greater than 100 µM each time.

For the origin of these results see PubChem BioAssay (NCI).
